Test results as given in patent US9187486B2 (AMGEN INC., priority 2011, dated 2015).
Where two headings read alike, the source gives them in different places.

How the values were obtained:
[1] = target: Pim-1 (Homo sapiens (Human), UniProt P11309); assay: Pim enzyme assay (HTRF, phosphorylation of biotinylated-BAD (S112) peptide), Pim-1; format: biochemical; conditions: read-out: Pim_1_IC50
How it was run: (§1)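 Full-length human Pim-1 or Pim-2 with an N-terminal His6 tag, expressed in Sf9 or E. coli and purified as monomer. HTRF read-out: biotinylated BAD (S112) peptide phosphorylation detected with streptavidin-APC plus Eu-anti-phospho-BAD(S112) antibody, excitation 337 nm, emission 665 nm.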

[2] = target: Pim-2 (Homo sapiens (Human), UniProt Q9P1W9); assay: Pim enzyme assay (HTRF, phosphorylation of biotinylated-BAD (S112) peptide), Pim-2; format: biochemical; conditions: full length recombinant Pim-2, biotinylated-BAD (S112) peptide, HTRF; read-out: Pim2_IC50
How it was run: as §1

[3] = system: KMS-12-BM myeloma cell line; assay: Pim cell assay: phospho-BAD (S112) and total BAD in KMS-12-BM cells; format: cell-based; conditions: Homo sapiens, KMS-12-BM, 1 hour and 50 minutes incubation, read-out: KMS12_Cell_IC50
Method: The KMS-12-BM myeloma cell line was used to determine the in vitro cellular inhibition of Pim kinases. Disruption of Pim signaling by Pim inhibitors was determined by measuring the levels of phospho-BAD (S112) and total BAD. […] The cells were then incubated overnight at 37° C., 5% CO2. […] In addition to the 10-point dosing curve of the test compound, DMSO alone was run as a control. This dilution in DMSO was then diluted again into cell growth medium. Aliquots (11.1 uL) of the compound diluted in growth medium were then transferred to the appropriate wells of the 96-well plates containing cells to yield a final DMSO concentration of 0.3%. The cell plates were then incubated with compound for 1 hour and 50 minutes at 37° C., 5% CO2. After the 1 hour and 50 min incubation, the cell plates were spun at 1000 RPM for 10 minutes and the compound-containing medium was removed. […] The cell plates containing lysis buffer were then immediately stored at −70° C. These prepared lysates were then assayed for phospho-(S112) and total-BAD according to the manufacturer's protocol (Meso Scale Diagnostics, Cat # K15103D-3). The plates were read on the MSD Sector Imager 6000, and results were calculated according to the assay protocol: ((% Phosphoprotein=((2×Phospho signal)/(Phospho signal+Total signal))×100)).

[4] = full length recombinant Pim-1, biotinylated-BAD (S112) peptide, HTRF

Pim-2, sequence (Q9P1W9 whole entry): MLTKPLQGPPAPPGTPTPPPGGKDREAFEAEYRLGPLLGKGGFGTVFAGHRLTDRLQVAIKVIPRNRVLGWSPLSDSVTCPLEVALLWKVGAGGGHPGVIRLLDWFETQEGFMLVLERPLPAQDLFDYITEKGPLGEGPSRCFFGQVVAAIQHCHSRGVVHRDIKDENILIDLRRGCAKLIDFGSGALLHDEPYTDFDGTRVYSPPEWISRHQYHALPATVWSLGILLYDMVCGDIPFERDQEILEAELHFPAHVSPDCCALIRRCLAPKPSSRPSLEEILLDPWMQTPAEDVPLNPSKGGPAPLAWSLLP
Pim-1, sequence (P11309 whole entry): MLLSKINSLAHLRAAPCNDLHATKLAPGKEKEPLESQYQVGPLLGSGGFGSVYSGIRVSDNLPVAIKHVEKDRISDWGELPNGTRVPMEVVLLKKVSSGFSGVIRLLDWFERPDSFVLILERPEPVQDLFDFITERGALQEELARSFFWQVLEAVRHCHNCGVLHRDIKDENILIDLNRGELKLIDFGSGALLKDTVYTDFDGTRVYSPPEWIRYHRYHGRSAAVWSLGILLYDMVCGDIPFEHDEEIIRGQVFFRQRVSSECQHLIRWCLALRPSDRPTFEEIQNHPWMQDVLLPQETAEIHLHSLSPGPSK

Structure (SMILES) | IC50 [1, 4] | IC50 [2] | IC50 [3] | IC50 [1]
N[C@H]1CCCN(c2ccncc2Nc2ncc3ccc(-c4cccnc4Cl)nn23)C1 [Example 6, N-(4-((3S)-3-amino-1-piperidinyl)-3-pyridinyl)-2-(2-chloro-3-pyridinyl)imidazo[1,5-b]pyridazin-7-amine (2,2,2-trifluoroacetate)] | 8 nM | 77 nM | 6660 nM | –
Fc1cccc(F)c1-c1ccc2cnc(Nc3cnccc3OC3CNC3)n2n1 [Example 9, N-(4-(3-azetidinyloxy)-3-pyridinyl)-2-(2,6-difluorophenyl)imidazo[1,5-b]pyridazin-7-amine] | 14 nM | 99 nM | 10300 nM | –
N[C@H]1CCCN(c2ccncc2Nc2ncc3ccc(-c4ccc(Cl)cc4Cl)nn23)C1 [Example 11, N-(4-((3S)-3-amino-1-piperidinyl)-3-pyridinyl)-2-(2,4-dichlorophenyl)imidazo[1,5-b]pyridazin-7-amine] | 2 nM | 11 nM | 5010 nM | –
N[C@H]1CCCN(c2ccncc2Nc2ncc3ccc(-c4ccccc4F)nn23)C1 [Example 15, N-(4-((3S)-3-amino-1-piperidinyl)-3-pyridinyl)-2-(2-fluorophenyl)imidazo[1,5-b]pyridazin-7-amine bis(2,2,2-trifluoroacetate)] | – | 2 nM | 1540 nM | 0.2 nM
Clc1ccccc1-c1ccc2cnc(Nc3cnccc3O[C@H]3CCCNC3)n2n1 [Example 16, 2-(2-chlorophenyl)-N-(4-((3S)-3-piperidinyloxy)-3-pyridinyl)imidazo[1,5-b]pyridazin-7-amine bis(2,2,2-trifluoroacetate)] | 44 nM | 298 nM | > 1000 nM | –

The remaining molecules from weak to strong by IC50 [1, 4], led by results:

IC50 [1, 4] | IC50 [2] | IC50 [3] | Structure (SMILES) | IC50 [1]
1.2 nM | 9.1 nM | 2390 nM | CS(=O)(=O)c1ccc(-c2ccc3cnc(Nc4cnccc4N4CCC[C@H](N)C4)n3n2)c(F)c1 [Example 22, N-(4-((3S)-3-amino-1-piperidinyl)-3-pyridinyl)-2-(2-fluoro-4-(methylsulfonyl)phenyl)imidazo[1,5-b]pyridazin-7-amine] | –
1 nM | 3 nM | 726 nM | N[C@H]1CCCN(c2ccncc2Nc2ncc3ccc(-c4nccs4)nn23)C1 [Example 8, N-(4-((3S)-3-amino-1-piperidinyl)-3-pyridinyl)-2-(1,3-thiazol-2-yl)imidazo[1,5-b]pyridazin-7-amine] | –
0.9 nM | 3 nM | 2670 nM | N[C@H]1CCCN(c2ccncc2Nc2ncc3ccc(-c4ccccc4Cl)nn23)C1 [Example 4, N-(4-((3S)-3-amino-1-piperidinyl)-3-pyridinyl)-2-(2-chlorophenyl)imidazo[1,5-b]pyridazin-7-amine] | –
0.9 nM | 12 nM | 6600 nM | N[C@H]1CCCN(c2ccncc2Nc2ncc3ccc(-c4cccnc4F)nn23)C1 [Example 7, N-(4-((3S)-3-amino-1-piperidinyl)-3-pyridinyl)-2-(2-fluoro-3-pyridinyl)imidazo[1,5-b]pyridazin-7-amine] | –
0.4 nM | 3 nM | 1760 nM | N[C@H]1CCCN(c2ccncc2Nc2ncc3ccc(-c4ccc(F)cc4F)nn23)C1 [Example 12, N-(4-((3S)-3-amino-1-piperidinyl)-3-pyridinyl)-2-(2,4-difluorophenyl)imidazo[1,5-b]pyridazin-7-amine] | –
0.3 nM | 0.6 nM | 209 nM | C[C@H]1CN(c2ccncc2Nc2ncc3ccc(-c4nccs4)nn23)C[C@@H](N)[C@@H]1O [Example 21, (3R,4R,5S)-3-amino-5-methyl-1-(3-((2-(1,3-thiazol-2-yl)imidazo[1,5-b]pyridazin-7-yl)amino)-4-pyridinyl)-4-piperidinol] | –
0.04 nM | 0.08 nM | 40 nM | C[C@H]1CN(c2ccncc2Nc2ncc3ccc(-c4c(F)cccc4F)nn23)C[C@@H](N)[C@@H]1O [Example 20, (3R,4R,5S)-3-amino-1-(3-((2-(2,6-difluorophenyl)imidazo[1,5-b]pyridazin-7-yl)amino)-4-pyridinyl)-5-methyl-4-piperidinol] | –
